Data from patent publication US6468977B1, “Thiadiazole compounds useful as inhibitors of cysteine activity dependent enzymes” (Apotex Inc., priority 1998, dated 2002).
Where a name gives a salt, the structure may show the parent alone.

Key:
Cathepsin B = target: T1, Cathepsin B (Homo sapiens, UniProt P07858); assay: Inhibition of cathepsin B, enzyme inactivation kinetics; assay type: biochemical; conditions: 25° C.; for k3 / kinact/KI / k3/Ki (second order rate of inhibition): pH 6.0; for Ki: pH 6.0, substrate N-Cbz-Phe-Arg 7-amido-4-methylcoumarin 100 μM; for kinact/KI: read-out: k3/Ki (second order rate of inhibition)
T1 construct: purchased Athens Research and Technology, Inc
Procedure: Enzyme assays and kinetic measurements.
Enzyme regeneration. Cathepsin B (Athens Research and Technology, Inc.) was regenerated by incubation with 2.5 mM dithioerythritol, 2.5 mM EDTA and 0.005% (v/v) Brij-35 in 50 mM potassium phosphate pH 6.0 for 5 min. at 25° C. The excess of dithioerythritol was removed by size exclusion chromatography on a NAP-10 column (Pharmacia) equilibrated with 20 mM sodium acetate pH 5.0 containing 10 mM EDTA. Enzyme activated in this way was used within several hours.
Measurement of inactivation constants:
The reactions were incubated at 25° C. […] The reaction progress curves were recorded continuously over five half-lives. […] Briefly, the reaction progress curves were analyzed by non-linear regression to the exponential equation (2) and pseudo-first order rate coefficients (kapp.) were calculated for each inhibitor concentration. [drawing 36] Fluorescence=Ae^−k^app.^t+B (2)
Second order rate for inhibition (ki/Ki), ki and Ki were determined from equation (3) by plotting (I/kapp.) vs. [I]; [formula]
where Km is the Michaelis-Menten constant, [I] is inhibitor concentration and [S] is substrate concentration.

[1] = system: IL-1 induced proteoglycan degradation of articular cartilage; assay: IL-1-induced proteoglycan degradation of articular cartilage explants in vitro; assay type: cell-based, calf; conditions: 1×10^−6 M, IL-1 50 ng/ml, 72 h, p=0.023
Procedure: The effect of Apo501 on IL-1 (interleukin) induced proteoglycan degradation of articular cartilage from normal calf joints was investigated in-vitro. Articular cartilage was sliced aseptically from the distal forelimb joints of less than 6-month old calves. […] The pooled, punched cartilage was washed and incubated in 20 ml of Ham's F12 medium with 5% FBS and 3% antibiotics for 72 hr at 37° C. for recovery.
Recovered explants were washed and replaced with a fresh medium. 20 μl (10 μCi/ml) of sodium [^35S] sulfate was added and cartilage explants incubated for 72 h at 37° C. to radiolabel proteoglycans. The explants was washed thoroughly (5 times) to remove free radioisotope and incubated in serum free, F-12 medium (3% Ab) overnight. Explants were then incubated in quadruplicate in fresh, serum free mediums containing varied concentrations of Apo-501 (10^−7, 10^−6, 10^−5, and 10^−4) for 24 h. […] The extent of proteoglycan degradation in each cartilage treated with different concentrations of Apo501 was determined by measuring the radioactivity of [^35S] sulfate-glycosaminoglycans by a liquid scintillation counter. Sample of 100 μl medium was added to 5 ml of scintillation cocktail (Ready Safe, Beckmann) and counted. Proteoglycan degradation was expressed as radiolabelled glycosaminoglycans released into the media (counts per min per ml) per dry weight (mg) of cartilage.

Transglutaminase = assay: Inhibition of transglutaminase, hydroxamate procedure, residual activity; assay type: biochemical; conditions: 100 μM (0.1 mM, 10% MeOH), one hour of incubation
Procedure: Inhibition of transglutaminase by compounds of formula I (Enzyme Assay).
Transglutaminase activity is measured by the […] hydroxamate procedure (J. Biol. Chem., 1971, 246, 1093). The tested compounds were dissolved in methanol and added to a buffered solution of purified Transglutaminase to give a final concentration of 0.1 mM (10% MeOH). After on hour of incubation, the solution was assayed for residual activity using the standard activity assay.

SMILES | melting point | k3 (Cathepsin B) | Ki (Cathepsin B) | kinact/KI (Cathepsin B) | k3/Ki (second order rate of inhibition) (Cathepsin B) | Reduction of IL-1-induced degradation of newly synthesized proteoglycan [1] | Inhibition of the enzyme (residual activity) (Transglutaminase)
CC[C@H](C)[C@H](Nc1nc(OC)ns1)C(=O)N1CCC[C@H]1C(=O)OC [Example 12A, N-(3-methoxy-[1,2,4]thiadiazol-5-yl)-L-iso-leucyl-L-proline methyl ester] | 129 to 130 °C |  |  |  |  |  | 
CC(C)CC(Nc1nc(C(=O)O)ns1)C(=O)N1CCCC1C(=O)O (stereo not shown) [apo310] |  | 0.089 s⁻¹ | 300 µM | 293 M⁻¹ s⁻¹ |  |  | 
CC[C@H](C)[C@H](Nc1nc(OC)ns1)C(=O)N1CCC[C@H]1C(=O)O [Example 13, N-(3-methoxy-[1,2,4]thiadiazol-5-yl)-L-iso-leucyl-L-proline] | 112 to 114 °C |  |  |  |  |  | 
COc1nsc(NC(=O)NC(CC(C)C)C(=O)NCCC(C)C)n1 (stereo not shown) [apo1073, 5-{3-methoxy-1,2,4-thiadiazolyl}carbamoyl-leucyl isoamylamide] |  | 0.032 s⁻¹ | 367 µM |  | 84 M⁻¹ s⁻¹ |  | 
COc1nsc(NC(=O)N[C@@H](CC(C)C)C(=O)N2CCC[C@H]2C(=O)O)n1 [apo503] |  | 0.014 s⁻¹ | 390 µM |  | 36 M⁻¹ s⁻¹ |  | 
Cc1nsc(N[C@@H](CC(C)C)C(=O)N2CCC[C@H]2C(=O)O)n1 [apo510, N-(3-Methyl-[1,2,4]thiadiazol-5-yl)-L-leucyl-L-proline] |  | 0.026 s⁻¹ | 447 µM | 55 M⁻¹ s⁻¹ |  |  | 
COc1nsc(N[C@@H](CC(C)C)C(=O)N2CCC[C@H]2C(=O)O)n1 [apo501, N-{(3-methoxy)-[1,2,4]thiadiazol-5-yl}-L-leucyl-L-proline. tris(hydroxymethyl)methylamine salt] |  | 0.015 s⁻¹ | 2.6 µM | 5630 M⁻¹ s⁻¹ |  | 60% | 
COc1nsc(NC(=O)[C@H](C)NC(=O)[C@H](Cc2ccccc2)NC(=O)OCc2ccccc2)n1 [apo504, 3-methoxy-5-(N-carbobenzyloxy-L-phenylalanyl-L-alaninamido)-[1,2,4]thiadiazole] | 161 to 162 °C | 0.032 s⁻¹ | 37 µM | 864 M⁻¹ s⁻¹ |  |  | completely inhibits
COc1nsc(N[C@@H](CC(C)C)C(=O)N2CCC[C@H]2C(=O)O)n1 [Example 11A, N-(3-methoxy-[1,2,4]thiadiazol-5-yl)-L-leucyl-L-proline] | 89 to 92 °C |  |  |  |  |  | 
CC[C@H](C)[C@H](Nc1nc(C(=O)c2ccccc2)ns1)C(=O)N1CCC[C@H]1C(=O)O [Example 16, N-[3-benzoyl-[1,2,4]thiadiazol-5-yl]-L-iso-leucyl-L-proline] | 132 to 134 °C |  |  |  |  |  | 
CC(C)C[C@H](Nc1nc(-c2ccccc2)ns1)C(=O)N1CCC[C@H]1C(=O)O [apo5O9, N-(3-Phenyl-[1,2,4]thiadiazol-5-yl)-L-leucyl-L-proline] |  | 0.013 s⁻¹ | 74 µM | 175 M⁻¹ s⁻¹ |  |  | 
COc1nsc(NC(=O)[C@H](Cc2ccccc2)NC(=O)OCc2ccccc2)n1 [apo201, 3-methoxy-5-(N-carbobenzyloxy-L-phenylalaninamido)-[1,2,4]thiadiazole] |  | 0.013 s⁻¹ | 21 µM |  | 658 M⁻¹ s⁻¹ |  | 
